According to patent US8703697B2, “Method for treating early severe diffuse acute respiratory distress syndrome” (priority 2011, dated 2014):

What was measured:
[1] = system: severe diffuse ARDS; experiment: Case observation: ARDS patient sedated with clonidine under spontaneous ventilation-pressure support and high PEEP; format: in vivo, human
[2] = system: sedation; settings: continuous infusion for sedation; cited from earlier work

SMILES: CC(CCc1ccc(O)cc1)NCCc1ccc(O)c(O)c1 (centres unmarked) [dobutamine]
- Superior vena cava O2 saturation ([1]; at all intervals, dobutamine D3 to D6, 2 then 1 μg·kg-1·min-1): > 70%

SMILES: Clc1cccc(Cl)c1N=C1NCCN1 [clonidine]
- P/F (PaO2/FiO2) ([1]; human, in vivo): 262
- Ramsay score ([1]; under clonidine 1 μg·kg-1·h-1, progressively lowered from Ramsay 5-6, patient communicated with family on D5): 2-3

SMILES: NC[C@H](O)c1ccc(O)c(O)c1 [noradrenaline]
- mean arterial pressure ([1]; noradrenaline 0.45 μg·kg-1·min-1 lowered to 0.01 μg·kg-1·min-1, forced diuresis): > 100 mm Hg

SMILES: Cc1cccc([C@H](C)c2cnc[nH]2)c1C [dexmedetomidine]
- dosage at which ceiling effect is observed [2]: 1.5 µg/kg/h
